Where two headings read alike, the source gives them in different places. Numbered stars: 1 amine (or outer) side, 2 acyl side, 3 side chain; on linkers, the order of the positions; unused ones are H or OH. Bridge positions count the residues as written; N and C are the ends. Square brackets hold non-standard residues; d marks the D form. Peptide text beside a SMILES is read from it. * marks the point of attachment. Acetyl(1-DOTA-4-piperidyl) = O=C(O)CN1CCN(CC(=O)O)CCN(CC(=O)N2CCC(CC(=O)*)CC2)CCN(CC(=O)O)CC1; X7 = O=C(O)CN1CCN(CC(=O)O)CCN(CC(=O)NC2CCN(CC(=O)*)CC2)CCN(CC(=O)O)CC1; DOTA = O=C(O)CN1CCN(CC(=O)O)CCN(CC(=O)*)CCN(CC(=O)O)CC1; Phe(4-Cl) = N[C@@H](Cc1ccc(Cl)cc1)C(=O)O; Propanoyl(3-SO2NH2) = NS(=O)(=O)CCC(=O)*; Arg(Me2s) = CN=C(NC)NCCC[C@H](N)C(=O)O; Dap(CONH2) = NC(=O)NC[C@H](N)C(=O)O; X1 = O=C(CC1CCN([*:1])CC1)[*:2]; Lys(Me) = CNCCCC[C@H](N)C(=O)O; Tle = CC(C)(C)[C@H](N)C(=O)O; Aib = CC(C)(N)C(=O)O
Key:
[1] = biological target: T1, PSMA-expressing C4-2 cells (Homo sapiens, UniProt Q04609); assay: FACS binding assay (competition with 50 nM PSM-0183); conditions: read-out: pIC50 [C4-2] CAT (converted)
T1 construct: PSMA-expressing C4-2 cells (ATCC, Cat. No. CRL-3314) were cultured in RPMI-1640; host or cells: C4-2 cells
T1 sequence (Q04609 whole entry): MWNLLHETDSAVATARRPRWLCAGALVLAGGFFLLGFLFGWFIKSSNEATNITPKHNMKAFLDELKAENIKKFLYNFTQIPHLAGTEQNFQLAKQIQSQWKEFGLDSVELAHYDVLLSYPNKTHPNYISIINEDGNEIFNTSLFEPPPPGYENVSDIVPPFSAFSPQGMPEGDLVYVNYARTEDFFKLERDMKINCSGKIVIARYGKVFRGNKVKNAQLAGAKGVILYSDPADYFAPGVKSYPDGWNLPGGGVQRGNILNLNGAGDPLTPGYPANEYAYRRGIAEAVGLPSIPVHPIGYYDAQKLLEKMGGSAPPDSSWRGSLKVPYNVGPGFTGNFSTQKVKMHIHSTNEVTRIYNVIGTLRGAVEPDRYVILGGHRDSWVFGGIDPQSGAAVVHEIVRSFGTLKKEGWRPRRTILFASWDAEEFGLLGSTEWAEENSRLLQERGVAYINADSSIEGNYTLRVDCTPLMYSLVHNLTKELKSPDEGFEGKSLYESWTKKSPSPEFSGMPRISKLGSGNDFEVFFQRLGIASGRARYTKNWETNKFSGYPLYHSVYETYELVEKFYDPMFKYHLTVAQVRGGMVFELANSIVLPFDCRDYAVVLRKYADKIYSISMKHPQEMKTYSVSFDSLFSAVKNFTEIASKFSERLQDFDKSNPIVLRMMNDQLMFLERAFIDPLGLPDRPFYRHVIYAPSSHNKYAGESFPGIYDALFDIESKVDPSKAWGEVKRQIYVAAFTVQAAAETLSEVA
Method in brief: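 Competition format: fluorescent tracer PSM-0183 (50 nM) displaced from PSMA on C4-2 cells by a test compound titration over 1 h at 4 °C. Bound tracer was quantified as flow-cytometric AF488 median fluorescence after washing. Four-parameter logistic fits of MFI data gave IC50 and pIC50.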

[2] = biological target: T2, Fc-fusion protein of human PSMA (hPSMA-Fc) (Homo sapiens, UniProt Q04609); assay: Surface plasmon resonance assay (Biacore T200, single cycle kinetic); type: binding; conditions: hPSMA-Fc, 25° C., read-out: pKD CAT (converted)
T2 construct: purchased Acro Biosystems PSA-H5264
T2 sequence (Q04609 44-750 limits assumed): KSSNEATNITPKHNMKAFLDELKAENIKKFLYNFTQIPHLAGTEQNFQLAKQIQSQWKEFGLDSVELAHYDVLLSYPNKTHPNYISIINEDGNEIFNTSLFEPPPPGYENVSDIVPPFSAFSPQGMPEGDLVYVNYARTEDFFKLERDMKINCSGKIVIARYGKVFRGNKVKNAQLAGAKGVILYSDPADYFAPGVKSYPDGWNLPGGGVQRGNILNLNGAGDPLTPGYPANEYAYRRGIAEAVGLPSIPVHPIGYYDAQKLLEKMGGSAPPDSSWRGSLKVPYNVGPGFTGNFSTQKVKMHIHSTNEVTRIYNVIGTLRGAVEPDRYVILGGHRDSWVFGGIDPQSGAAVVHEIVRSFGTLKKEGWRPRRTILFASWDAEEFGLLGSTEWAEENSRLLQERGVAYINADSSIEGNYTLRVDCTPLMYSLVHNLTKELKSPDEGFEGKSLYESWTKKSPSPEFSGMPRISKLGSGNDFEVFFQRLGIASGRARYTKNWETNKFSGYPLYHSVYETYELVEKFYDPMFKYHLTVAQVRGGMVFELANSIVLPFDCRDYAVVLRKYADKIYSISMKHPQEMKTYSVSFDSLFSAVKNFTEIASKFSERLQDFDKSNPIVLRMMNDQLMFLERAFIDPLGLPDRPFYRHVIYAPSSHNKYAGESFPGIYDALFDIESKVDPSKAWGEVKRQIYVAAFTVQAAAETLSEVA
Method in brief: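 KD, expressed as pKD, came from 1:1 Langmuir fits of reference- and buffer-blank-subtracted SPR data. The runs were single-cycle kinetics at 25° C in HBST/0.1% DMSO over human PSMA-Fc, captured to ~1000 RU on a peptide-coated CM5 surface and regenerated with 10 mM glycine pH 1.5.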

[3] = FACS binding, PSMA-expressing C4-2 cells, pIC50 category
[4] = pIC50 category of FACS binding, C4-2 cells
[5] = pKD category for PSMA SPR activity assay
[6] = FACS binding, C4-2 cells, competition with 50 nM PSM-0183, category
[7] = SPR, single cycle kinetic, category

Question: For CC(=O)NC(C)(C)C(=O)N[C@@H](Cc1ccc(Cl)cc1)C(=O)N[C@H]1CSSC[C@@H](C(=O)N[C@H](C(=O)N[C@H](C(N)=O)[C@@H](C)O)C(C)(C)C)NC(=O)[C@H](CC(N)=O)NC(=O)[C@H](CCCCNC(=O)CN2CCC(NC(=O)CN3CCN(CC(=O)O)CCN(CC(=O)O)CCN(CC(=O)O)CC3)CC2)NC(=O)[C@H](CCCNC(=N)N)NC(=O)[C@H](CCCCN)NC1=O [PSM-0282, Ac-Aib-Pcf-[Cys-Lys-Arg-Lys(DOTA-APAc)-Asn-Cys]-Tle-Thr-NH2] (Ac-[Aib][Phe(4-Cl)]CKRK(X7)NC[Tle]T-NH2; disulfide 3-8), which IC50 [1, 3] is on record?
Answer: Its IC50 is less than 200 nM.

Question: What about the Kd ([2]; PSMA SPR assay, pKD category) of the same compound?
Answer: Its Kd is less than 12.6 nM.

Question: Which IC50 [1, 4] does the source give for C/N=C(/NC)NCCC[C@@H]1NC(=O)[C@H](CCCCNC)NC(=O)[C@@H](NC(=O)[C@H](Cc2ccc(Cl)cc2)NC(=O)C(C)(C)NC(=O)[C@@H](NC(=O)CC2CCN(C(=O)CN3CCN(CC(=O)O)CCN(CC(=O)O)CCN(CC(=O)O)CC3)CC2)[C@@H](C)O)CSSC[C@@H](C(=O)N[C@H](C(=O)N[C@H](C(N)=O)[C@@H](C)O)C(C)(C)C)NC(=O)[C@H](CC(N)=O)NC(=O)C(C)(C)NC1=O [PSM-0499, DOTA-Cmp-Thr-Aib-Pcf-[Cys-Lys(Me)-Egd-Aib-Asn-Cys]-Tle-Thr-NH2] ({DOTA}-[X1]T[Aib][Phe(4-Cl)]C[Lys(Me)][Arg(Me2s)][Aib]NC[Tle]T-NH2; disulfide 5-10) here?
Answer: Its IC50 is less than 200 nM.

Question: What about the Kd [2, 5] of the same compound?
Answer: The Kd was less than 12.6 nM.

Question: What does the source list for CC(=O)N[C@@H](Cc1ccc(Cl)cc1)C(=O)N[C@H]1CSSC[C@@H](C(N)=O)NC(=O)[C@H](CC(N)=O)NC(=O)C(C)(C)NC(=O)[C@H](CCCNC(=N)N)NC(=O)[C@H](CCCCN)NC1=O [PSM-0524, Ac-Pcf-[Cys-Lys-Arg-Aib-Asn-Cys]-NH2] (Ac-[Phe(4-Cl)]CKR[Aib]NC-NH2; disulfide 2-7)?
Answer: IC50 [1, 4]: > 3160 nM; Kd [2, 5]: > 501 nM

Question: How did the IC50 [1, 3] turn out when CC(=O)NC(C)(C)C(=O)N[C@@H](Cc1ccc(Cl)cc1)C(=O)N[C@H]1CSSC[C@@H](C(=O)N[C@H](C(=O)N[C@H](C(=O)N2CCC(CC(=O)N[C@H](CCCCNC(=O)CN3CCN(CC(=O)O)CCN(CC(=O)O)CCN(CC(=O)O)CC3)C(N)=O)CC2)[C@@H](C)O)C(C)(C)C)NC(=O)[C@H](CC(N)=O)NC(=O)C(C)(C)NC(=O)[C@H](CCCNC(=N)N)NC(=O)[C@H](CCCCN)NC1=O [PSM-0349, Ac-Aib-Pcf-[Cys-Lys-Arg-Aib-Asn-Cys]-Tle-Thr-Cmp-lys(DOTA)-NH2] (Ac-[Aib][Phe(4-Cl)]CKR[Aib]NC[Tle]T[X1][dK](DOTA)-NH2; disulfide 3-8) was run?
Answer: The IC50 was less than 200 nM.

Question: What about the Kd ([2]; PSMA SPR assay, pKD category) of the same compound?
Answer: The Kd was less than 12.6 nM.

Question: How did the IC50 [1, 6] turn out when CC(=O)N[C@H](C(=O)NC(C)(C)C(=O)N[C@@H](Cc1ccccc1)C(=O)N[C@H]1CSSC[C@@H](C(=O)N[C@H](C(=O)N[C@H](C(=O)N[C@@H](CC(=O)O)C(N)=O)[C@@H](C)O)C(C)(C)C)NC(=O)[C@H](CC(N)=O)NC(=O)[C@H](C)NC(=O)[C@H](CNC(N)=O)NC(=O)[C@H](CCCCN)NC1=O)[C@@H](C)O [PSM-0180, Ac-Thr-Aib-Phe-[Cys-Lys-Gln-Ala-Asn-Cys]-Tle-Thr-Asp-NH2] (Ac-T[Aib]FCK[Dap(CONH2)]ANC[Tle]TD-NH2; disulfide 4-9) was run?
Answer: Its IC50 is less than 200 nM.

Question: What about the Kd [2, 7] of the same compound?
Answer: Its Kd is 12.6 to 126 nM.

Question: How did the IC50 [1, 6] turn out when C[C@@H](O)[C@H](NC(=O)[C@@H](NC(=O)[C@@H]1CSSC[C@H](NC(=O)[C@H](Cc2ccc(Cl)cc2)NC(=O)C(C)(C)NC(=O)CCS(N)(=O)=O)C(=O)N[C@@H](CCCCN)C(=O)N[C@@H](CCCNC(=N)N)C(=O)NC(C)(C)C(=O)N[C@@H](CC(N)=O)C(=O)N1)C(C)(C)C)C(=O)N1CCC(CC(=O)N[C@H](CCCCNC(=O)CN2CCN(CC(=O)O)CCN(CC(=O)O)CCN(CC(=O)O)CC2)C(N)=O)CC1 [PSM-0215, SaPr-Aib-Pcf-[Cys-Lys-Arg-Aib-Asn-Cys]-Tle-Thr-Cmp-lys(DOTA)-NH2] ({Propanoyl(3-SO2NH2)}-[Aib][Phe(4-Cl)]CKR[Aib]NC[Tle]T[X1][dK](DOTA)-NH2; disulfide 3-8) was run?
Answer: Its IC50 is less than 200 nM.

Question: What about the Kd [2, 7] of the same compound?
Answer: Its Kd is 12.6 to 126 nM.

Question: With CC(=O)N[C@H](C(=O)NC(C)(C)C(=O)N[C@@H](Cc1ccccc1)C(=O)N[C@H]1CSSC[C@@H](C(=O)N[C@H](C(=O)N[C@H](C(N)=O)[C@@H](C)O)C(C)(C)C)NC(=O)[C@H](CC(N)=O)NC(=O)[C@H](CCCCNC(=O)CC2CCN(C(=O)CN3CCN(CC(=O)O)CCN(CC(=O)O)CCN(CC(=O)O)CC3)CC2)NC(=O)[C@H](CCCNC(=N)N)NC(=O)[C@H](CCCCN)NC1=O)[C@@H](C)O [PSM-0415, Ac-Thr-Aib-Phe-[Cys-Lys-Arg-Lys(DOTA-Cmp)-Asn-Cys]-Tle-Thr-NH2] (Ac-T[Aib]FCKRK(Acetyl(1-DOTA-4-piperidyl))NC[Tle]T-NH2; disulfide 4-9) as the compound, how does the IC50 [1, 4] read?
Answer: Its IC50 is less than 200 nM.

Question: What about the Kd [2, 5] of the same compound?
Answer: Its Kd is 12.6 to 126 nM.

From patent US20260083865A1, “PROSTATE SPECIFIC MEMBRANE ANTIGEN (PSMA) LIGANDS AND USE THEREOF” (priority 2022, published 2026)
